Measured values as given in patent US10351915B2 (Berg LLC, priority 2009, dated 2019).

What was measured:
[1] = tested on: HepG2 (liver cancer) cells; assay: PCR Diabetes Array; type: cell-based; details: 100 μM Q10, 48 hours
Procedure: The treatment was initiated on 1×10^5 cells per well, following the procedure utilized in the PaCa2 cells (above, Examples 9-11). However, the total amount of RNA that was extracted from these samples was lower than expected. Reverse transcription is normally done using 1 μg total RNA (determined by measurement at 260 nm). The maximum volume that can be used per reverse transcription is 8 μl.

HASMC cells = assay: Extracellular acidification rate (ECAR), SeaHorse XF analyzer; type: cell-based, human; details: hyperglycemic, hypoxic conditions
Excerpt: (§1) (SeaHorse Biosciences Inc, North Billerica, Mass.).
In this experiment, the OCR and extracellular acidification rate (ECAR) in normal cells lines were obtained in the presence and absence of CoQ10 to determine baseline values. It was observed that in its native nutrient environment, the basal OCR rates in normal cells lines are different, and are usually a function of the physiological roles of the cells in the body.
In Table 128 the measured baseline ECAR values (mpH/min) in HASMC were higher compared to that of HDFa. Induction of hypoxic conditions caused an increase in ECAR most likely associated with intracellular hypoxia induced acidosis secondary to increased glycolysis.

PaCa-2 cells = assay: as above; type: cell-based; details: normoxia, high glucose
Procedure: as §1
In contrast to normal cells, cancer cells are phenotypically primed to use high glucose for ATP generation (enhanced glycolysis) resulting in higher ECAR (Table 129, ECAR for untreated normoxia 17 mM) at 21 mpH/min. […] The associated decrease in OCR in these cells was likely associated with increased efficiency of the mitochondrial OXPHOS.

Caspase 3 = assay: Western blot, Caspase 3 levels; type: cell-based, human; details: PACA2, 5g glucose, amount 50
Procedure: The blots were stripped by incubating for 30 minutes with methanol, followed by two 10 minute washes with TBS-T, then 30 minutes of incubation with Stripping buffer at 50 deg C., and followed by two washes with 100 ml or more of TBS-T for 30′ each. The 2 blots were scanned in laser scanner to check for complete stripping. The blots were activated with methanol for 5 seconds, washed with water for 5 minutes, and TBST for 15 minutes. The blots were blocked for 1 hour with 5% blocking reagent in TBS-T at room temperature and then washed 3 times with TBS-T (1×-15′; 2×5′ each) and probed with the antibody for Caspase 3 in 5% BSA (Santacruz Biotechnology # sc7272) at 1:200 dilutions) overnight at 4 deg C. with shaking. After the overnight incubation with primary antibody for Caspase 3, the membranes were washed 3 times with TBS-T (1×-15′; 2×5′ each) and probed with the secondary antibody (antimouse; 1:10,000 dilution) for 1 h on the orbital tilting shaker at room temperature. […]
The levels of Caspase 3 and actin were determined by probing the blots successively with primary antibodies for Caspase 3 and actin, essentially as described above. […]

SMILES: COC1=C(OC)C(=O)C(C/C=C(\C)CC/C=C(\C)CC/C=C(\C)CC/C=C(\C)CC/C=C(\C)CC/C=C(\C)CC/C=C(\C)CC/C=C(\C)CC/C=C(\C)CCC=C(C)C)=C(C)C1=O [Q10, Coenzyme Q10]
- PPARGCIA mRNA [1]: normalized or were slightly upregulated
- ECAR rates (HASMC cells): downward trend of ECAR rates
- ECAR rates (PaCa-2 cells): significant decrease in ECAR rates
- Caspase 3 Normalized Volume (48 h) (Caspase 3): 701
